Data reported in patent US8530433B2, “Use of icariside II in manufacture of products for preventing or treating male or female sexual dysfunction” (Bjo-Biomed Ltd, priority 2008, dated 2013).

Key:
[1] = test system: Porcine vascular endothelial cells (PAE); assay: NOS enzyme activity in vascular endothelial cells (PAE), NOS kit; format: cell-based; conditions: for NOS enzyme activity: PAE cells
Method: Porcine vascular endothelial cells (PAE) were provided by the Institute of Urology, Peking University. The determination of the effect of icariside II on NOS activity in the endothelial cell is conducted using NOS kit (Cayman Chemical company, Ann Arbor, Mich., USA). Vascular endothelial cells (PAE) were treated with different concentrations of icariside II (0, 10^−9, 10^−8, 10^−7, 10^−6, 10^−5 and 10^−4 M) (sildenafil as the control group). 180 μl lysate was added into each culture well. 20 μl supernatant was used for protein concentration assay with BCA protein kit. And, 100 μl supernatant was analyzed for NOS activity with NOS kit (Cayman Chemical company, Ann Arbor, Mich., USA). NOS activity (units/mg)=[(valueNos-measure−valueNOS-blank)÷(38.3×10^6)]×[(2.15+supernatant volume)÷(15×supernatant volume)]÷[protein concentration of each Petri dish].

[2] = test system: Primary human corpus cavernosum smooth muscle cells (CCSMCs); assay: cGMP/cAMP biosynthesis in corpus cavernosum smooth muscle cells; format: cell-based; conditions: 4 hours; for effect on the cAMP concentration: P>0.05
Method: Primary human corpus cavernosum smooth muscle cells ([…]) were provided by the Andrology Center of Peking University. The […] of the third passage were cultured in six plates for two days. Then the cells were treated with icariside II or the sildenafil at the concentration of 0, 10^-9, 10^-8, 10^-7, 10^-6, 10^-5, M for 4 hours; or treated with icariside II or the sildenafil at the concentration of 0, 10^-9, 10^-8, 10^-7, 10^-6, 10^-5, 10^-4 M for 4 hours followed by a treatment with 10^-5 M of SNP for 30 min. The control group was cultured with DMEM only. Then to each well was added 0.4 mL 0.1 M HCl and incubated at room temperature for 20 minutes. Then the lysed cells are harvested. The cell suspension was collected in centrifuge tubes and centrifuged at 1000 g for 10 minutes; 60 μl cell suspension was taken for protein concentration assay with the BCA protein kit, and 100 μl cell suspension was taken for cGMP or cAMP concentration test. The concentration of cGMP [pmol/(mg prot·min)]=[cGMP or cAMP concentration×supernatant volume]÷reaction time×protein concentration in each well×supernatant volume].

[3] = test system: Human corpus cavernosum smooth muscle cells; assay: RT-PCR mRNA expression of NOS isoforms and PDE5a in corpus cavernosum smooth muscle cells; format: cell-based; conditions: 12.5 μM; 1 day and 2 days treatment
Method: Human corpus cavernosum smooth muscle cells were grown in 60 mm Petri dishes. […] Then the treated CCSMCs were lysed with Trizol and total RNA was extracted and reverse transcribed into cDNA. PCR amplification was carried out using eNOS, iNOS, nNOS and PDE5a specific primers and the specific PCR products represent the mRNA levels.

[4] = test system: MPG nerve axon of old rats; assay: MPG (major pelvic ganglion) culture, nerve axon growth; format: cell-based, rat; conditions: for MPG nerve axon growth compared to control group: old rats; for MPG nerve axon growth (length of the longest nerve axon): old rats (24-month-old), n = 9
Method: The 24-month-old Sprague-Dawley male rats were used. All experimental animals used in this study were under a protocol approved by the Institutional Animal Care and Use Committee. Rats were anesthetized by intraperitoneal injection of pentobarbital sodium (200 mg/kg). After midline incision on abdomen, major pelvic ganglion was carefully dissected from prostate. MPG culture and treatment: the Bilaterally MPG was rapidly removed and after washing with PBS, DCR were stripped from MPG and cut into 3 pieces with the same size. Reduced Growth Factor Matrigel (RGFM) was diluted three times with serum free RPMI-1640 medium and placed in the 35 mm Petri dish on ice. The diluted RGFM were poured onto the cold sterilized glass cover slip and incubated at 37° C. for 1 hour in 35 mm Petri dishes to make the RGFM steady. Then each MPG was embedded in 40 μl of pre-cooled RGFM and maintained at 37° C. for 5 minute and cultured in RPMI 1640 with 1% penicillin-streptomycin that is maintained in humidified cell culture incubator containing 5% CO2 at 37° C. The cultured MPG tissues were randomly divided into 3 groups: control group, icariside II and sildenafil groups. […] Three MGP from the younger groups and the three MPG from the older groups were cultured with designation dose for 48-72 hours. Measurement of nerve axon growth: at the 48 and 72 hours, Nikon DXM1200 digital camera connected to Zeiss Axiovert microscope and ACT-1 software (20 times magnification) was used to observe the nerve axon growth on the MPG. The digital image was analyzed by […] 4000 and the length of the longest nerve axon was calculated.

[5] = test system: Primary human corpus cavernosum smooth muscle cells (CCSMCs); assay: NOS activity in corpus cavernosum smooth muscle cells; format: cell-based
Method: Primary human corpus cavernosum smooth muscle cells ([…]) were provided by the Andrology Center of Peking University. The […] of the third passage were cultured in six well plates for two days. Then the cells were treated with icariside II or the sildenafil at a concentration of 0, 10^-9, 10^-8, 10^-7, 10^-6, 10^-5 M; or treated with icariside II (0, 10^-9, 10^-8, 10^-7, 10^-6, 10^-5 M) in the presence or absence of LNNA (4×10^-4 M). The control group was cultured with DMEM only. After 24 hours, the cells were washed three times and 180 μl lysis buffer was added into each well; 60 μl cell suspension was taken for protein concentration assay with BCA protein kit; 100 μl cell suspension was taken for NOS activity test. NOS activity (units/mg protein)=[(valueNOS-measure-valueNOS-blank)÷(38.3×10^6)]×[(2.15+supernatant volume)÷(15×S supernatant volume)]÷[protein concentration in each well].

Compound | NOS enzyme activity ([1]; 10^−5 M) [u/mg] | NOS enzyme activity ([1]; 10^−6 M) [u/mg] | NOS enzyme activity ([1]; 10^−7 M) [u/mg] | NOS enzyme activity ([1]; 10^−8 M) [u/mg] | NOS enzyme activity ([1]; 10^−9 M) [u/mg] | effect on the cAMP concentration [2] | PDE5a mRNA level [3] | eNOS mRNA level [3] | iNOS mRNA level [3] | nNOS mRNA level [3] | MPG nerve axon growth compared to control group ([4]; 10 nM, 100 nM, 1000 nM) | MPG nerve axon growth (length of the longest nerve axon) ([4]; 10 nM) | MPG nerve axon growth (length of the longest nerve axon) ([4]; 100 nM) | MPG nerve axon growth (length of the longest nerve axon) ([4]; 1000 nM) | other results
CCCc1nn(C)c2c(=O)[nH]c(-c3cc(S(=O)(=O)N4CCN(C)CC4)ccc3OCC)nc12 [Sildenafil, sildenafil, reference compound] | 6.66 ± 0.65 | 5.99 ± 0.58 | 6.32 ± 0.63 | 5.85 ± 0.579 | 5.76 ± 0.56 | no significant effect | significantly reduced | not significantly changed | slightly increased after 2 days treatment | not significantly changed | did not significantly affect | 215 ± 2.6 μm | 238 ± 3.5 μm | 219 ± 3.2 μm | effect on NOS activity in endothelial cells ([1]; endothelial cells (PAE, PAE-EGFR), p>0.05): no significant effect; effect on NOS activity in CCSMCs ([5]; 10^−9 to 10^−5 M, 24 hours): no significant difference
icariside II | 18.66 ± 1.79 | 19.1 ± 1.9 | 16.46 ± 1.63 | 10.71 ± 0.98 | 8.65 ± 0.87 | no significant effect | significantly decreased | not changed | slightly increased | significantly increased | significantly increased | 295 ± 5.3 μm* | 325 ± 4.1 μm* | 406 ± 4.3 μm* | NOS enzyme activity ([1]; 10^−6 M, listed as icariside II): 19.1±1.891 u/mg; NOS enzyme activity ([1]; 10^−8 M, listed as icariside II): 10.71±1.09 u/mg; EC50 ([2]; in presence of 10^−5 M SNP, read-out: EC50 of cGMP concentration increase): 1020 nM; NOS activity (peak) ([5]; 10^−6 M, 24 hours, untreated 0.46 units/mg): 4.19 units/mg; NOS activity ([5]; 10^−8 M, 24 hours, untreated 0.46 units/mg): 1.59 units/mg; peak value of NOS activity in presence of LNNA ([5]; with LNNA 4×10^−4 M): 2.67 unit/mg
